The text below walks through data of US7400979B2, “Method of identifying inhibitors of Lck” (Abbott Laboratories, priority 2001, dated 2008).

Experiment [1] has as its target Lck protein tyrosine kinase (Homo sapiens, UniProt P06239). Kind of experiment: Lck inhibition assay: ELISA for protein tyrosine kinases. The experiment is classed as biochemical. Conditions: poly(Glu4Tyr) substrate, 5 μM ATP, 5% DMSO, result in words. From the text:
The disclosed protocol was adapted for determining activity with respect to a specific protein tyrosine kinase, e.g. Lck. […] Adaptation of these protocols for determining the activity of a compound against other protein tyrosine kinases, for example Hck, are well within the abilities of those skilled in the art. […] The following procedure was used to assay the inhibitory effect of compounds of this invention on Lck protein tyrosine kinase activity:
Store on ice. […] Store on ice.
(ELISA stands for enzyme-linked immunosorbent assay.)

A further experiment addresses Hck (Homo sapiens, UniProt P08631). Kind of experiment: ELISA for protein tyrosine kinases adapted to Hck (inhibitor selectivity). The experiment is classed as biochemical. The note with it: result in words; b177 defines selective as IC50 for Lck at least 10-fold lower than for the related protein. From the text:
The disclosed protocol was adapted for determining activity with respect to a specific protein tyrosine kinase, e.g. Lck. […] Adaptation of these protocols for determining the activity of a compound against other protein tyrosine kinases, for example Hck, are well within the abilities of those skilled in the art. […] The following procedure was used to assay the inhibitory effect of compounds of this invention on Lck protein tyrosine kinase activity: […]

Each structure is given as a SMILES string.

Lck protein tyrosine kinase, sequence (P06239 whole entry): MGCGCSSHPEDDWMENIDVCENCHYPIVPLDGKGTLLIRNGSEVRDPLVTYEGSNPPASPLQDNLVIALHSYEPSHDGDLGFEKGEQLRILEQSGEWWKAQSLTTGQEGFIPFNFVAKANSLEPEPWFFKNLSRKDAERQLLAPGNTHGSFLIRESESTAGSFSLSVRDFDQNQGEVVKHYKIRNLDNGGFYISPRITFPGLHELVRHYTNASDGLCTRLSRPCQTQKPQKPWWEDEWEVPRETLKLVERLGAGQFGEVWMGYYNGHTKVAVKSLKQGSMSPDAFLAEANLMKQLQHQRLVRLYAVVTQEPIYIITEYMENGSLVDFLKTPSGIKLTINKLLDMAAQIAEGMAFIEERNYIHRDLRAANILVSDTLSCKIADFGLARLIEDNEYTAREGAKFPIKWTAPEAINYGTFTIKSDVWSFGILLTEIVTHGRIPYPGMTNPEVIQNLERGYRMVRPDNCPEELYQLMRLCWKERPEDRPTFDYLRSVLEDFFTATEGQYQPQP
Hck, sequence (P08631 whole entry): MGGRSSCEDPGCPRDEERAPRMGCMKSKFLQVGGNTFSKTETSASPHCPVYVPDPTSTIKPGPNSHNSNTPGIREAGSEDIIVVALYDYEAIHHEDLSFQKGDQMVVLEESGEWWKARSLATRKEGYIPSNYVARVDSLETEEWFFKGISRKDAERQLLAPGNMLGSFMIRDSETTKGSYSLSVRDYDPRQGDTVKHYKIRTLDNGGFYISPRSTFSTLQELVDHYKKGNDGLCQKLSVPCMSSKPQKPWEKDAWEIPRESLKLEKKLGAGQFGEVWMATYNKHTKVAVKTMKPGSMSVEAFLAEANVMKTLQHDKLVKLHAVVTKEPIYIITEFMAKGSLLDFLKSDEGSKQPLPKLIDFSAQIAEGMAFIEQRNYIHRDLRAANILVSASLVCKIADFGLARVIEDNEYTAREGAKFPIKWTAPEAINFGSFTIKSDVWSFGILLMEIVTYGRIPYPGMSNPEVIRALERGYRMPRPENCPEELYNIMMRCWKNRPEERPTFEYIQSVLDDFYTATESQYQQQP

On to `CN1CCN([C@H]2CC[C@H](n3nc(-c4ccc(Nc5n[nH]c6ccccc56)cc4)c4c(N)ncnc43)CC2)CC1` [inhibitor 15, trans-3-[4-(1H-3-indazolylamino)phenyl]-1-[4-(4-methylpiperazino)cyclohexyl]-1H-pyrazolo[3,4-d]pyrimidin-4-amine], for which the “Lck inhibition (in vitro potency)” value in experiment [1] is “potent inhibitor of human Lck”.
For the compound `CNCCCN(C)C/C=C/c1[nH]c(=O)c2c(ccc3nc(Nc4c(Cl)cccc4Cl)n(C)c32)c1C` [inhibitor 13, 2-(2,6-dichloroanilino)-1,6-dimethyl-7-((E)-3-{methyl[3-(methylamino)propyl]amino}-1-propenyl)-8,9-dihydro-1H-imidazo[4,5-h]isoquinolin-9-one], in experiment [1], the “Lck inhibition (in vitro potency)” value was “potent inhibitor of Lck”. For the same compound, the “selectivity for Lck over Hck” value at Hck is recorded as “inhibit Lck selectively over Hck”.
